Experimental data as given in US12286442B2, “Methods and materials for increasing transcription factor eb polypeptide levels” (University of Pittsburgh—Of the Commonwealth System of …, priority 2019, dated 2025).

Legend:
TFEB = test: High content screen measuring TFEB nuclear accumulation (TFEB nuclear/cytosol ratio) in BEAS-2B cells stably expressing TFEB-EGFP; assay type: cell-based, human; settings: 18 hours incubation
Procedure: FIG. 3. High content screen assay (384 well) measuring TFEB nuclear accumulation. Approximately 2500 primary and immortalized human bronchial epithelial cells (BEAS-2B) stably expressing TFEB-EGFP in 25 μL of HITEs media with 10% FBS were dispensed into 384 well plate (Black with glass bottom) and incubated for 8 hours. Compound serial dilution (DMEM low glucose media with 2% FBS, 25 μL volume) were prepared using a robotic liquid hander. Compound solutions were then added to the cell plate and incubated for 18 hours. Cells were then fixed with 4% PFA followed by DAPI staining. TFEB localization was imaged on the GFP channel along with the DAPI signal using a Cytation 5 high content imager. Images were processed through Biotek Gen5 software; specifically, the DAPI signal was used as the primary mask to quantify the nuclear TFEB-GFP signal. The cytosolic TFEB-GFP signal was quantified through expanding the primary mask. The TFEB nuclear/cytosol ratios were calculated from nuclear TFEB-GFP signal/cytosol TFEB-GFP signal, which determined the compound efficacy. […] Compound activities (μM) were determined by the minimal compound concentration needed to increase TFEB nuclear/cytosol ratio by 25%. Activity: “−” equals >25 μM; “+” equals between 25 μM and >10 μM; “++” equals between ≤10 μM and >1 μM; and “+++” equals […]. N=4.
(§1) Approximately 2300 primary and immortalized human bronchial epithelial cells (BEAS-2B) stably expressing TFEB-EGFP in 25 μL of HITEs media with 10% FBS were dispensed into 384 well plate (Black with glass bottom) and incubated for 8 hours. Compound serial dilution (DMEM low glucose media with 2% FBS, 25 μL volume) were prepared using a robotic liquid hander. Compound solution were then added to the cell plate and incubated for 18 hours. Cells were then fixed with 4% PFA followed by DAPI staining. TFEB localization was imaged on the GFP channel along with the DAPI signal using a Cytation 5 high content imager. Images were processed through Biotek Gen5 software. Specifically, the DAPI signal was used as the primary mask to quantify the nuclear TFEB-GFP signal. Cytosolic TFEB-GFP signal was quantified through expanding the primary mask. The TFEB nuclear/cytosol ratios were calculated from nuclear TFEB-GFP signal/cytosol TFEB-GFP signal, which determined the compound efficacies.
Compounds efficacies (μM) were determined by the minimal compound concentration needed to increase TFEB nuclear/cytosol ratio by 25%. Activity: “+” equals >25 μM; “++” equals between ≤25 μM and >1 μM; and “+++” equals ≤1 μM.
A high-content imaging screen was conducted using Beas2B cells that stably express GFP-TFEB.

BEAS-2B cells = test: Toxicity: compound concentration needed to induce greater than 50 percent of cell loss; assay type: cell-based, human; settings: 18 hours incubation
Procedure: as §1
Toxicity was determined by determining the compound concentration needed to induce greater than 50 percent of cell loss. For toxicity, cell loss of greater than 50 percent at a concentration that equals or is greater than 25 μM was represented as cell loss of greater than 50 percent at a concentration less than 25 μM and greater than 1 μM was represented as and cell loss of greater than 50 percent at a concentration that equals or is less than 1 μM was represented as “+++.” The assay results for compounds 1-202, 214-248, 332, 333, and 352-402 are shown in Table A.

With Cc1cc(F)cc(Nc2nc(-c3ccncc3C)nc3ccccc23)c1 [Compound 53] the “efficacy (minimal compound concentration needed to increase TFEB nuclear/cytosol ratio by 25%)” value (TFEB) was “+ (“+” equals >25 μM)” and the “toxicity (compound concentration needed to induce greater than 50 percent of cell loss)” value (BEAS-2B cells) was “+ (cell loss of greater than 50 percent at a concentration that equals or is greater than 25 μM was represented as)”.

Cc1cccc(Nc2nc(-c3ccncc3C)nc3ccccc23)c1 [Compound 54] was tested, and the “efficacy (minimal compound concentration needed to increase TFEB nuclear/cytosol ratio by 25%)” value (TFEB) was “+ (“+” equals >25 μM)” and the “toxicity (compound concentration needed to induce greater than 50 percent of cell loss)” value (BEAS-2B cells) was “+ (cell loss of greater than 50 percent at a concentration that equals or is greater than 25 μM was represented as)”.

Cc1cc(Br)cc(Nc2nc(-c3ccncc3)nc3ccccc23)c1 [Compound 55] was tested, and the “efficacy (minimal compound concentration needed to increase TFEB nuclear/cytosol ratio by 25%)” value (TFEB) was “+ (“+” equals >25 μM)” and the “toxicity (compound concentration needed to induce greater than 50 percent of cell loss)” value (BEAS-2B cells) was “+ (cell loss of greater than 50 percent at a concentration that equals or is greater than 25 μM was represented as)”.

In the case of Nc1ccc(Nc2nc(-c3ccncc3)nc3ccccc23)cc1 [Compound 56], the “efficacy (minimal compound concentration needed to increase TFEB nuclear/cytosol ratio by 25%)” value (TFEB) is reported as “++ (“++” equals between ≤25 μM and >1 μM)” and the “toxicity (compound concentration needed to induce greater than 50 percent of cell loss)” value (BEAS-2B cells) is reported as “+ (cell loss of greater than 50 percent at a concentration that equals or is greater than 25 μM was represented as)”.

c1cnc2ccc(Nc3nc(-c4ccncc4)nc4ccccc34)cc2c1 [Compound 57] was tested, and the “efficacy (minimal compound concentration needed to increase TFEB nuclear/cytosol ratio by 25%)” value (TFEB) was “+++ (“+++” equals ≤1 μM)” and the “toxicity (compound concentration needed to induce greater than 50 percent of cell loss)” value (BEAS-2B cells) was “+ (cell loss of greater than 50 percent at a concentration that equals or is greater than 25 μM was represented as)”.

Cc1cc(Nc2nc(-c3ccncc3)nc3ccccc23)ccc1N [Compound 58] was tested, and the “efficacy (minimal compound concentration needed to increase TFEB nuclear/cytosol ratio by 25%)” value (TFEB) was “++ (“++” equals between ≤25 μM and >1 μM)” and the “toxicity (compound concentration needed to induce greater than 50 percent of cell loss)” value (BEAS-2B cells) was “+ (cell loss of greater than 50 percent at a concentration that equals or is greater than 25 μM was represented as)”.

In the case of CNc1ccc(Nc2nc(-c3ccncc3)nc3ccccc23)cc1 [Compound 59], the “efficacy (minimal compound concentration needed to increase TFEB nuclear/cytosol ratio by 25%)” value (TFEB) is reported as “++ (“++” equals between ≤25 μM and >1 μM)” and the “toxicity (compound concentration needed to induce greater than 50 percent of cell loss)” value (BEAS-2B cells) is reported as “+ (cell loss of greater than 50 percent at a concentration that equals or is greater than 25 μM was represented as)”.

For NC1CCC(Nc2nc(-c3ccncc3)nc3ccccc23)CC1 (stereo not drawn) [Compound 60], the “efficacy (minimal compound concentration needed to increase TFEB nuclear/cytosol ratio by 25%)” value (TFEB) was “+ (“+” equals >25 μM)” and the “toxicity (compound concentration needed to induce greater than 50 percent of cell loss)” value (BEAS-2B cells) was “+ (cell loss of greater than 50 percent at a concentration that equals or is greater than 25 μM was represented as)”.

With Cc1c(Nc2nc(-c3ccncc3)nc3ccccc23)ccc2[nH]ccc12 [Compound 61] the “efficacy (minimal compound concentration needed to increase TFEB nuclear/cytosol ratio by 25%)” value (TFEB) was “+++ (“+++” equals ≤1 μM)” and the “toxicity (compound concentration needed to induce greater than 50 percent of cell loss)” value (BEAS-2B cells) was “++ (cell loss of greater than 50 percent at a concentration less than 25 μM and greater than 1 μM was represented as)”.

Cc1cc2cc(Nc3nc(-c4ccncc4)nc4ccccc34)ccc2[nH]1 [Compound 62] was tested, and the “efficacy (minimal compound concentration needed to increase TFEB nuclear/cytosol ratio by 25%)” value (TFEB) was “+++ (“+++” equals ≤1 μM)” and the “toxicity (compound concentration needed to induce greater than 50 percent of cell loss)” value (BEAS-2B cells) was “+++ (cell loss of greater than 50 percent at a concentration that equals or is less than 1 μM was represented as “+++.”)”.

For Oc1ccc(-c2nc(Nc3ccc4[nH]ccc4c3)c3ccccc3n2)cc1 [Compound 63], the “efficacy (minimal compound concentration needed to increase TFEB nuclear/cytosol ratio by 25%)” value (TFEB) was “+ (“+” equals >25 μM)” and the “toxicity (compound concentration needed to induce greater than 50 percent of cell loss)” value (BEAS-2B cells) was “+ (cell loss of greater than 50 percent at a concentration that equals or is greater than 25 μM was represented as)”.

For Oc1ccc(-c2nc(Nc3ccc4[nH]ncc4c3)c3ccccc3n2)cc1 [Compound 64], the “efficacy (minimal compound concentration needed to increase TFEB nuclear/cytosol ratio by 25%)” value (TFEB) was “++ (“++” equals between ≤25 μM and >1 μM)” and the “toxicity (compound concentration needed to induce greater than 50 percent of cell loss)” value (BEAS-2B cells) was “++ (cell loss of greater than 50 percent at a concentration less than 25 μM and greater than 1 μM was represented as)”.
